Source: paper PMC7076352 (Pharmaceutics, 2020)

Key:
[1] = in vivo; parameters: species or system Sprague-Dawley (SD) rats; settings: Sprague-Dawley, plasma, rat
Description: At each time, 0.5 mL of blood was collected in the heparin sodium tubes. Plasma was separated by centrifugation at 4000 rpm for 10 min and stored below −80 °C until bioanalysis. Oasis PRiME HLB SPE cartridges (1 cc/30 mg, Waters, Milford, MA, USA) were used to process the plasma samples (Supplementary Materials).
The generic layout of instrumentation setup of the LVDI-UHPLC-MS/MS was conducted on a Shimadzu UHPLC system consisting of two LC-20ADXR pumps, a DGU-20A3R degasser, and a CBM-20A controller (Kyoto, Japan) with a SCIEX 4500 QTRAP mass spectrometer mounted with an electron spray ionization (ESI) interface as well as an electronic 6-port/2-channel valve (Foster City, CA, USA). Analyst software package (version 1.6.2, SCIEX) was implemented to control and synchronize the entire system, and also for data acquisition and processing. A single analytical run was fragmented into two phases, namely, loading and elution phases, by switching the electronic valve (Figure 2). At the loading phase, the valve was maintained at A-channel. The specimen aliquot of large volume delivered from the auto-sampler was captured onto a guard column. Meanwhile, the pumps were responsible for delivering the mobile phase at a high flow rate, aiming to dilute the sample solvent, thus facilitating the candidate constituents to concentrate on the pre-guard column. Then, the valve was automatically switched to the B-channel to trigger the elution phase. The trapped components were flushed from the pre-guard column into an analytical column, and underwent multiple reaction monitoring (MRM) analysis on the optimized LC gradients. The detailed information of LVDI-UHPLC-MS/MS analysis for pharmacokinetic and cocktail studies is shown in the Supplementary Materials section.

[2] = tested on: CYP2C19; test: In vitro cocktail CYP450 activity assay in rat liver microsomes, CYP2C19 (omeprazole probe)
Description: (§1) (OHBUP-[D6]) and 5 nM 4′-hydroxydiclofenac-[^13C6] (OHDIC-[^13C6]) as internal standards (ISs). […]
(§2) standard addition experiments. Each group included four concentration levels. For the PK […]
(§3) The probe compounds, viz. […]
(§4) chosen after incubating all the recruited substrates. In order to assure the linear relationship […]
(§5) The incubation system was also optimized in terms of substrate concentrations. The substrates concentrations of […]

[3] = tested on: CYP2B6; test: In vitro cocktail CYP450 activity assay in rat liver microsomes, CYP2B6 (bupropion probe)
Description: as §1, §2, §3, §4, §5

[4] = tested on: CYP2C9; test: In vitro cocktail CYP450 activity assay in rat liver microsomes, CYP2C9 (tolbutamide probe)
Description: as §1, §2, §3, §4, §5

[5] = tested on: CYP2D6; test: in vitro; settings: Sprague-Dawley, rat
Description: as §1, §2, §3, §4, §5

[6] = tested on: CYP3A4; test: in vitro; settings: Sprague-Dawley, rat, pH 7.4
Description: as §1, §2, §3, §4, §5

[7] = target: T1, CYP1A2 (Rattus norvegicus, UniProt P04799); test: In vitro cocktail CYP450 activity assay in rat liver microsomes, CYP1A2 (phenacetin probe)
T1 sequence (P04799 1-513): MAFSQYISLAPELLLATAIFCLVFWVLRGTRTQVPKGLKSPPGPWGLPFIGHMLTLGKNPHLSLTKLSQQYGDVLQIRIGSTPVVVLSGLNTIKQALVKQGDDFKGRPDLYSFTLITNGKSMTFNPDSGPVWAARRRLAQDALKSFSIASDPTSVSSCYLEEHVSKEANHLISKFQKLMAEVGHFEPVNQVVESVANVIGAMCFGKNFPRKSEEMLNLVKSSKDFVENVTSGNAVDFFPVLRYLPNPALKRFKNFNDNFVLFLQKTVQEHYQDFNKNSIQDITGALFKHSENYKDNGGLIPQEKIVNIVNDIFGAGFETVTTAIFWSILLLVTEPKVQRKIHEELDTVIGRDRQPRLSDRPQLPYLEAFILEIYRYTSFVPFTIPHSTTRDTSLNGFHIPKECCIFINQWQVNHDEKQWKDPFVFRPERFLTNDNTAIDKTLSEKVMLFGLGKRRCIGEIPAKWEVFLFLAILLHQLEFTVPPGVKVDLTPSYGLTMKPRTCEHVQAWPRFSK
Description: as §1, §2, §3, §4, §5

[8] = target: T2, CYP2E1 (Rattus norvegicus, UniProt P05182); settings: IC50 CYP2E1, single components; RLM 0.2 mg/mL, 15 min, triplicate, mean ± SD
[9] = target: T2, CYP2E1; settings: at the Cmax level in rat plasma, calculated from the dose–response curve
[10] = at the Cmax level in rat plasma, calculated from the dose–response curve

T2 sequence (P05182 whole entry): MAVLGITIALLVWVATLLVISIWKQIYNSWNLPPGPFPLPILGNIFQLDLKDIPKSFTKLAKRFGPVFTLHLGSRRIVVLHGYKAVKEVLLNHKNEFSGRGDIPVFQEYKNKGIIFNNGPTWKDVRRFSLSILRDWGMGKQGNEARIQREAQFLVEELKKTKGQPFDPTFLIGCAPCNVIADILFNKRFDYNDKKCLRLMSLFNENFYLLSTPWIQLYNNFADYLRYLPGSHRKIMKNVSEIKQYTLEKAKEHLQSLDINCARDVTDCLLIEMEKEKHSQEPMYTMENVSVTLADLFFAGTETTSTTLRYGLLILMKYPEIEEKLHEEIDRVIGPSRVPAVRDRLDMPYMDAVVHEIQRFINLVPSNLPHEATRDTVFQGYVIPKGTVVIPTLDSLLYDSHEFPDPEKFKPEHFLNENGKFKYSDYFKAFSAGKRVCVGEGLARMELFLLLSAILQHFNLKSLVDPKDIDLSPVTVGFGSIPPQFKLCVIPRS

CC(C)=CCC[C@](C)(O[C@@H]1O[C@H](CO[C@@H]2O[C@H](CO)[C@@H](O)[C@H](O)[C@H]2O)[C@@H](O)[C@H](O)[C@H]1O)[C@H]1CC[C@]2(C)[C@@H]1[C@H](O)C[C@@H]1[C@@]3(C)CC[C@H](O[C@@H]4O[C@H](CO)[C@@H](O)[C@H](O)[C@H]4O[C@@H]4O[C@H](CO)[C@@H](O)[C@H](O)[C@H]4O)C(C)(C)[C@@H]3CC[C@]12C [GRb1, ginsenoside Rb1]
concentration at […] ([1]; 0.083 h after oral CNP): 18.7 ± 4.36 ng/mL | concentration at 0.25 h ([1]; 0.25 h after oral CNP): 22.5 ± 4.27 ng/mL | concentration at 0.5 h ([1]; 0.5 h after oral CNP): 36.1 ± 7.79 ng/mL | concentration at 1 h ([1]; 1 h after oral CNP): 45.5 ± 3.29 ng/mL | concentration at 1.5 h ([1]; 1.5 h after oral CNP): 54.6 ± 10.9 ng/mL | concentration at 2 h ([1]; 2 h after oral CNP): 60.5 ± 12 ng/mL | concentration at 3 h ([1]; 3 h after oral CNP): 69.5 ± 9.4 ng/mL | concentration at 4 h ([1]; 4 h after oral CNP): 83.9 ± 31.8 ng/mL | concentration at 6 h ([1]; 6 h after oral CNP): 113 ± 74.6 ng/mL | concentration at 8 h ([1]; 8 h after oral CNP): 80 ± 20.6 ng/mL | concentration at 12 h ([1]; 12 h after oral CNP): 63.9 ± 28.4 ng/mL | concentration at 24 h ([1]; 24 h after oral CNP): 22.4 ± 4.86 ng/mL | concentration at 48 h ([1]; 48 h after oral CNP): 19.4 ± 3.81 ng/mL | concentration at 72 h ([1]; 72 h after oral CNP): 9.62 ± 1.02 ng/mL | concentration at 96 h ([1]; 96 h after oral CNP): 6.43 ± 2.45 ng/mL | AUC(0-inf) ([1]; po, 60 mg/kg): 2810 ± 618 ng·h/mL | AUC(0-t) ([1]; po, 60 mg/kg): 2320 ± 683 ng·h/mL | Cmax ([1]; po, 60 mg/kg): 113 ± 41.8 ng/mL | Tmax ([1]; po, 60 mg/kg): 5.5 ± 1.8 h | half-life ([1]; po, 60 mg/kg): 36.9 ± 9.65 h | concentration at 0.25 h ([1]; po, 60 mg·kg^−1): 27.9 ± 4.54 ng/mL | concentration at 0.5 h ([1]; po, 60 mg·kg^−1): 38.1 ± 3.67 ng/mL | concentration at 1 h ([1]; po, 60 mg·kg^−1): 53.5 ± 12 ng/mL | concentration at 1.5 h ([1]; po, 60 mg·kg^−1): 58.4 ± 12.4 ng/mL | concentration at 2 h ([1]; po, 60 mg·kg^−1): 61.9 ± 19.5 ng/mL | concentration at 3 h ([1]; po, 60 mg·kg^−1): 78.1 ± 12.8 ng/mL | concentration at 4 h ([1]; po, 60 mg·kg^−1): 86.9 ± 41 ng/mL | concentration at 6 h ([1]; po, 60 mg·kg^−1): 107 ± 42.1 ng/mL | concentration at 8 h ([1]; po, 60 mg·kg^−1): 75.7 ± 26.3 ng/mL | concentration at 12 h ([1]; po, 60 mg·kg^−1): 53.9 ± 19.1 ng/mL | concentration at 24 h ([1]; po, 60 mg·kg^−1): 19.2 ± 5.86 ng/mL | concentration at 48 h ([1]; po, 60 mg·kg^−1): 18.9 ± 8.97 ng/mL | concentration at 72 h ([1]; po, 60 mg·kg^−1): 9.45 ± 3.37 ng/mL | concentration at 96 h ([1]; po, 60 mg·kg^−1): 6.79 ± 1.89 ng/mL | IC50 at 15 min ([2]; Sprague-Dawley, rat, pooled rat liver microsomes, pH 7.4, probe omeprazole (1.07 µM, in seven-probe cocktail), IC50 CYP2C19, single components, RLM 0.2 mg/mL, 15 min, triplicate, mean ± SD): 16.8 ± 2.52 µM | Response (% control) CYP2C19 [2, 10]: 98.58 % control | IC50 at 15 min ([3]; Sprague-Dawley, rat, pooled rat liver microsomes, pH 7.4, probe bupropion (90 µM, in seven-probe cocktail), IC50 CYP2B6, single components, RLM 0.2 mg/mL, 15 min, triplicate, mean ± SD): 121 ± 10.9 µM | Response (% control) CYP2B6 [3, 10]: 96.46 % control | IC50 at 15 min ([4]; Sprague-Dawley, rat, pooled rat liver microsomes, pH 7.4, probe tolbutamide (18 µM, in seven-probe cocktail), IC50 CYP2C9, single components, RLM 0.2 mg/mL, 15 min, triplicate, mean ± SD): 17.6 ± 2.03 µM | Response (% control) CYP2C9 [4, 10]: 99.70 % control | Response (% control) CYP2D6 ([5]; 15 min, pH 7.4): 98.58 % control | IC50 at 15 min ([5]; microsomes, pH 7.4, IC50 CYP2D6): 17.1 ± 1.29 µM | Response (% control) CYP3A4 ([6]; 15 min): 99.99 % control | IC50 at 15 min ([6]; microsomes): 30 ± 2.47 µM | IC50 ([7]; IC50 CYP1A2, single components, RLM 0.2 mg/mL, 15 min, triplicate, mean ± SD): 5.84 ± 0.14 µM | Response (% control) CYP1A2 [7, 10]: 79.30 % control | IC50 [8]: 28 ± 2.39 µM | Response (% control) CYP2E1 [9]: 99.99 % control
